Source: ChEMBL document CHEMBL3430912, “GSK Tres Cantos Anti-Kinetoplastid Screening (TCAKS) Data”

What was measured:
[1] = tested on: Trypanosoma cruzi; assay: GSK_TCAKS: pIC50 Trypanosoma cruzi viability assay using beta-GAL activity. This assay was run at single shot at 5uM compound concentration per well. The biological reagents consisted of NIH-3T3 host cells and trypomastigotes parasitic cells; both cell types were set to a 3.3 * 10^5 cells/mL dilution in assay DMEM by means of a CASY cell counter device using a 60um capillary. 6 uL of the mixture were dispensed per well (about 1 * 10^3 host-cells and 1 * 10^3 parasites) with a Multidrop Combi dispenser. […] In all wells, the percentage of DMSO never exceeded 0.5%. Plates incubated for four days at 37C, 5% CO2. The substrate used for the assay fluorescence intensity (FLINT) readout was resorufin-beta-D-galactopiranoside (Sigma-Aldrich) at 5uM per well. It was diluted in PBS supplemented with the soft detergent Igepal (Fluka).; assay type: functional, organism-based, Mus musculus; details: Tulahuen, NIH3T3
[2] = tested on: Trypanosoma cruzi; assay: (§1) GSK_TCAKS: pIC50 Trypanosoma cruzi Imaging: Infected Cells. […] Cells were then washed once with PBS before infection. T. cruzi trypomastigotes, collected at days 5 to 8 after infection from LLC-MK2 parasite infected cultures, were allowed to swim out for 4h at 37C from a centrifuged pellet (2,500 rpm/10 min/room temperature). Trypomastigotes were then collected and counted in a CASY Cell Counter. Trypomastigotes, in supplemented DMEM, were added to H9c2 cultures in a multiplicity of infection of 1 and incubated for 18 h. Cells were washed once with PBS before incubation of the infected H9c2 monolayer with trypsin (Life-Technologies) to detach cells from the flask. Cells were counted in a CASY Cell Counter using a 150 um capillary and their density set at 5 * 10^4 cells per mL in supplemented assay DMEM. Infected H9c2 were dispensed into 384-well poly-lysine coated assay plates at 50uL per well using a Multidrop Combi dispenser. After seeding them, the plates were incubated at 37C, 5% CO2 for 72h. Cultures were then fixed and stained by addition of 50 uL of a solution containing 8% formaldehyde and 4 uM DRAQ5 DNA dye (BioStatus, UK) per well. […] Five images were collected per well for reliable statistical analysis. Automated image analysis was performed with a script developed on Acapella High Content Imaging and Analysis Software (PerkinElmer). Output: percentage of infected cells per well as a second infection marker.; assay type: functional, organism-based, Rattus norvegicus; details: H9c2, 4 h
[3] = tested on: Trypanosoma cruzi; assay: GSK_TCAKS: pIC50 Trypanosoma cruzi Imaging: Amastigotes/Cell. […] Cells were then washed once with PBS before infection. T. cruzi trypomastigotes, collected at days 5 to 8 after infection from LLC-MK2 parasite infected cultures, were allowed to swim out for 4h at 37C from a centrifuged pellet (2,500 rpm/10 min/room temperature). Trypomastigotes were then collected and counted in a CASY Cell Counter. Trypomastigotes, in supplemented DMEM, were added to H9c2 cultures in a multiplicity of infection of 1 and incubated for 18 h. Cells were washed once with PBS before incubation of the infected H9c2 monolayer with trypsin (Life-Technologies) to detach cells from the flask. Cells were counted in a CASY Cell Counter using a 150 um capillary and their density set at 5 * 10^4 cells per mL in supplemented assay DMEM. Infected H9c2 were dispensed into 384-well poly-lysine coated assay plates at 50uL per well using a Multidrop Combi dispenser. After seeding them, the plates were incubated at 37C, 5% CO2 for 72h. Cultures were then fixed and stained by addition of 50 uL of a solution containing 8% formaldehyde and 4 uM DRAQ5 DNA dye (BioStatus, UK) per well. […] Five images were collected per well for reliable statistical analysis. Automated image analysis was performed with a script developed on Acapella High Content Imaging and Analysis Software (PerkinElmer). Output: number of amastigotes per cell as infection level measurement.; assay type: functional, organism-based, Rattus norvegicus; details: H9c2, 4 h
[4] = tested on: Trypanosoma cruzi; assay: as §1, with “H2C9” for “Trypanosoma cruzi”, “H9c2 Host Cardiomyocytes.” for “Infected Cells.”, “Number” for “percentage”, “H9c2 Host Cardiomyocytes nuclei to determine drug-related cytotoxicity.” for “infected cells per well as a second infection marker.”; assay type: functional, organism-based, Rattus norvegicus; details: H9c2, 4 h
[5] = tested on: Leishmania donovani; assay: GSK_TCAKS: pIC50 Leishmania donovani viability assay using fluorescence intensity. Assay plates (1536-well) were prepared by adding 30nL per well of compound. For single shot assay, the final compound concentration was 5uM. […] Briefly, eGFP LdBOB axenic amastigotes were harvested, fixed and counted in a CASY cell counter (Roche-Applied Science). A final concentration of 1.5 * 10^5 cells per well were prepared in amastigote media containing 500 U/mL penicillin/streptomycin (Invitrogen) and 6uL was dispensed to each experimental well using a Multidrop Combi dispenser (Thermo Scientific). 6uL of assay media was dispensed to control columns used as reference for 100% compound response. Following incubation for 72 h at 37C, 5% CO2, 2 uL of resazurin was added to each well at a final concentration of 0.5 mM in phosphate buffered saline (PBS) with IGEPAL (Sigma-Aldrich), 0.05% (v/v).; assay type: functional, organism-based
[6] = tested on: Leishmania donovani; assay: GSK_TCAKS: pIC50 Leishmania donovani Imaging: Infected Macrophages. Assay plates (384-well) were prepared by adding 250nL of compound to each well. For single shot assay, the final compound concentration was 5 uM. […] Automated image analysis was performed with a script developed on Acapella High Content Imaging and Analysis Software (PerkinElmer). Output: Percent of infected macrophage cells were reported for each well.; assay type: functional, organism-based, Homo sapiens; details: THP-1
[7] = tested on: Leishmania donovani; assay: GSK_TCAKS: pIC50 Leishmania donovani Imaging: Amastigotes/Macrophages. Assay plates (384-well) were prepared by adding 250nL of compound to each well. For single shot assay, the final compound concentration was 5 uM. […] Automated image analysis was performed with a script developed on Acapella High Content Imaging and Analysis Software (PerkinElmer). Output: Average number of amastigotes per macrophage cell were reported for each well.; assay type: functional, organism-based, Homo sapiens; details: THP-1
[8] = tested on: Leishmania donovani; assay: GSK_TCAKS: pIC50 Leishmania donovani Imaging: THP-1 Host Macrophages. Assay plates (384-well) were prepared by adding 250nL of compound to each well. For single shot assay, the final compound concentration was 5 uM. […] Automated image analysis was performed with a script developed on Acapella High Content Imaging and Analysis Software (PerkinElmer). Output: THP-1 cell count were reported for each well.; assay type: functional, organism-based, Homo sapiens
[9] = tested on: Trypanosoma brucei brucei; assay: GSK_TCAKS: pIC50 Trypanosoma brucei viability assay using fluorescence intensity. Assay plates (1536-well) were prepared by dispensing 25nL of compound solution per well using an Echo acoustic dispenser (Labcyte).; assay type: functional, organism-based; details: Lister 427, 2 h
[10] = tested on: Trypanosoma brucei brucei; assay: GSK_TCAKS: pIC50 Trypanosoma brucei viability assay using luminiscence. Assay plates (1536-well) were prepared. T. brucei cultures were harvested and counted in a CASY cell counter. A parasite suspension was prepared at a final concentration of 5 * 10^4 cells/mL in complete HMI9 medium and 6uL was dispensed to all wells containing compounds using a Multidrop Combi dispenser. 6uL of HMI9 media with 0.4% DMSO were dispensed to control columns. Plates were incubated for 24 h at 37C, 5% CO2 then tempered for 10 min at room temperature. ATP content was quantified by adding 4 uL of CellTiter-Glo Reagent (Promega) according to the manufacturer's instructions. Luminescence was measured using a ViewLux.; assay type: functional, organism-based; details: Lister 427, CASY
[11] = GSK_TCAKS: pIC50 HepG2 human cell line viability assay using luminiscence. […] Seeding density was checked to ensure that new mono-layers were not more than 50% confluent at the time of harvesting. Cell suspension was added to 500 mL of the same medium at a final density of 1.2 * 10^5 cells/mL. This cell suspension was dispensed (25 uL, 3000 cells per well) into 384-well clear-bottom plates using a Multidrop Combi dispenser. Prior to addition of the cell suspension, the screening compounds (250 nL) were pre-dispensed into the plates with an Echo liquid handler. Plates were incubated for 48 h at 37C, 5% CO2. After incubation, plates equilibrated at room temperature for 30 min before proceeding to develop the luminescent signal. The signal developer, CellTiter-Glo Reagent, was allowed to equilibrate at room temperature for 30 min and added to the plates (25uL per well) using a Multidrop Combi dispenser. Plates were left for 10 min at room temperature for stabilization and then read using a ViewLux.; assay type: toxicity, cell-based
[12] = tested on: NIH3T3; assay: GSK_TCAKS: pIC50 NIH 3T3 cell line viability assay using luminiscence. Tissue culture surface treated assay plates (1536-well) were used. […] The 100% cells survival control was determined exposing the host-cells to a 0.5% DMSO concentration, whereas the 100% toxicity control was achieved by seeding the cells in presence of Amphotericin B at 50uM. Plates were incubated for four days at 37C, 5% CO2. The assay readout was developed by addition of 5uL of CellTiter-Glo Reagent following the manufacturer's instructions. Luminiscence was measured using a ViewLux.; assay type: functional, cell-based; details: Mus musculus, NIH3T3, 96 h
[13] = biological target: Sterol 14-alpha demethylase (Trypanosoma cruzi (strain CL Brener), UniProt Q7Z1V1); assay: GSK_TCAKS: pIC50 CYP51 from Trypanosoma cruzi.; assay type: functional
Sequence of Sterol 14-alpha demethylase (Q7Z1V1 whole entry): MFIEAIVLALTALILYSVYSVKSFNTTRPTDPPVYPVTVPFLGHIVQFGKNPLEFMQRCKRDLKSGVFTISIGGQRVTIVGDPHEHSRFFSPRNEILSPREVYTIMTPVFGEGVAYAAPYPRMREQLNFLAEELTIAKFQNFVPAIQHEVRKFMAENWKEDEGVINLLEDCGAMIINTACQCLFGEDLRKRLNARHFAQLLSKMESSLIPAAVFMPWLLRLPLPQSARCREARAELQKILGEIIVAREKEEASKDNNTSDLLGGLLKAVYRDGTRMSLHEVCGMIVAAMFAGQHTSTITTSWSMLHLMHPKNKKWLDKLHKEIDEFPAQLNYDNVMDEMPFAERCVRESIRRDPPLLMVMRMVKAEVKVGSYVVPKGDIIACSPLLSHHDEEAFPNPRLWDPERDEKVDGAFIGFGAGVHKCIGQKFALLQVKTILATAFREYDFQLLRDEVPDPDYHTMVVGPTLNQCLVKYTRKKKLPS

Compound | IC50 [1] | IC50 [2] | IC50 [3] | IC50 [4] | IC50 [5] | IC50 [6] | IC50 [7] | IC50 [8] | IC50 [9] | IC50 [10] | IC50 at 48 h [11] | IC50 [12] | IC50 [13]
Cc1ccc(NC(=O)C(C)n2nc([N+](=O)[O-])c(Br)c2C)cc1Cl (stereo not given) | 2.51 µM | 6.31 µM | 3.16 µM | > 50.1 µM | > 50.1 µM | > 50.1 µM | > 50.1 µM | > 50.1 µM | 15.8 µM | > 39.8 µM | 79.4 µM | 12.6 µM | > 100 µM
OCCCNc1nc(Nc2ccncc2)nc2ccccc12 | 0.708 µM | 1.26 µM | 0.2 µM | > 50.1 µM | 39.8 µM | > 50.1 µM | > 50.1 µM | > 50.1 µM | 25.1 µM | > 39.8 µM | > 100 µM | > 50.1 µM | > 100 µM
Cc1ccccc1OCC(=O)N1CCCN(c2cccnn2)CC1 | 0.316 µM | 0.631 µM | 0.501 µM | > 50.1 µM | 12.6 µM | > 50.1 µM | > 50.1 µM | > 50.1 µM | > 39.8 µM | > 39.8 µM | > 100 µM | 50.1 µM | 0.0794 µM
O=C(Nc1ncc([N+](=O)[O-])s1)C1CC1 | 0.398 µM | 1 µM | 0.398 µM | > 50.1 µM | 39.8 µM | > 50.1 µM | > 50.1 µM | > 50.1 µM | 7.94 µM | 39.8 µM | > 100 µM | 31.6 µM | > 100 µM
O=C(C1CCCCC1)N1CCN(c2nnc(-c3ccccc3)c3ccccc23)CC1 | 1 µM | 0.631 µM | 0.398 µM | > 50.1 µM | > 50.1 µM | > 50.1 µM | 20 µM | 50.1 µM | 10 µM | > 39.8 µM | > 100 µM | > 50.1 µM | > 100 µM
CN1CCCN(C(=O)c2ccc(N3CCCC3)cc2Cl)CC1 | 0.891 µM | 1 µM | 0.631 µM | > 50.1 µM | 39.8 µM | > 50.1 µM | > 50.1 µM | > 50.1 µM | > 39.8 µM | > 39.8 µM | > 100 µM | 25.1 µM | > 100 µM
O=C(NC1C(=O)N(c2ccccc2)C1c1cccnc1)c1ccc(Cl)s1 (stereo not given) | 0.0316 µM | 0.0501 µM | 0.0398 µM | > 50.1 µM | 1 µM | > 50.1 µM | 0.794 µM | > 50.1 µM | > 39.8 µM | > 39.8 µM | > 100 µM | > 50.1 µM | 0.2 µM
CC(CNS(=O)(=O)c1ccc(OC(F)F)cc1)c1ccc(NC(=O)c2ccncc2)cc1 (stereo not given) | 0.2 µM | 0.1 µM | 0.0794 µM | > 50.1 µM | > 50.1 µM | > 50.1 µM | 5.01 µM | 15.8 µM | 7.94 µM | 20 µM | 100 µM | > 50.1 µM | 0.0501 µM
CCCc1nc2nc(N)nc(N)c2cc1CC | 0.355 µM | 0.316 µM | 0.0794 µM | 12.6 µM | 2 µM | 39.8 µM | 39.8 µM | > 50.1 µM | 20 µM | 25.1 µM | 20 µM | 31.6 µM | > 100 µM
COc1ccc(C(=O)Nc2cc(C(F)(F)F)ccc2N2CCOCC2)c(OC)c1 | 1 µM | 0.794 µM | 0.316 µM | > 50.1 µM | 5.01 µM | 10 µM | 7.94 µM | 12.6 µM | 10 µM | 25.1 µM | > 100 µM | 31.6 µM | > 100 µM
